From patent publication US12281122B1, “PI3K inhibitors” (Cogent Biosciences, Inc., priority 2023, dated 2025)
pIC50: −log10 of the molar value.

Tests used:
[1] = system: T47D (PI3Kα-H1047R) cell line; experiment: HTRF phospho-AKT(S473) cell assay in T47D cells; type: cell-based, human
Procedure: (§1) Compounds in the present disclosure were tested in a cell based HTRF phospho-AKT(S473) (CisBio/Revvity) assay in human breast cancer cell lines as a measurement of PIK3CA activity through measuring AKT, a downstream effector. The activity of mutant PI3Kα-H1047R and PI3Kα-Wild Type was measured in the T47D (PI3Kα-H1047R) and SKBR3 (PI3Kα-Wild Type) cell lines, respectively. T47D cells were plated at 20,000 cells per well in 50 μL in RPMI medium supplemented with 10% FBS and 0.2 units/mL insulin, in 384 well plates. SKBR3 cells were plated at 25,000 cells per well in 50 μL in McCoy's 5A medium supplemented with 10% FBS, in 384 well plates. Cells were plated using a Combi Multidrop reagent dispenser (ThermoFisher), and placed in 5% CO2, 37° C. incubator overnight to adhere.
(§2) The next day, cells were treated with either compounds or vehicle (DMSO) in a 12-fold dose response curve of 1:3 dilutions, with 5 μM and 10 μM as the top concentrations for the T47D and SKBR3 cell lines, respectively. Compound treatment was facilitated via the D300e digital dispenser (Tecan), with a maximum DMSO concentration of 0.5%. Following compound addition, cell plates were incubated for 2 hours in 5% CO2, 37° C. incubator. The SKBR3 cells were stimulated and treated with 70 ng/ml PDGF-BB ligand (ThermoFisher) for the remaining 15 minutes of the incubation. Following compound incubation, compound and media was aspirated from the cells and 25 μL of supplemented lysis buffer was added per well, and incubated for 45 minutes at room temperature, shaking at 600 rpm. Next, 16 μL of cell lysate was added to a 384 well low volume ProxyPlate (Perkin Elmer/Revvity) mixed with 4 μL of HTRF antibodies (1:1 Eu Cryptate+d2 Cryptate). HTRF supplemented lysis buffer and antibody reagents were used from the phosphor-AKT(S473) HTRF assay kit (CisBio/Revvity), following manufacturers protocol recommendations. Plates were sealed and incubated at 4° C. overnight.
(§3) The following day, plates were centrifuged for 1 minute at 1000 rpm, and read on a PHERAstar plate reader. IC50 values were calculated using Spotfire software.

[2] = system: SKBR3 (PI3Kα-Wild Type) cell line; experiment: HTRF phospho-AKT(S473) cell assay in SKBR3 cells; type: cell-based, human
Procedure: as §1, §2, §3

[3] = Homo sapiens; HTRF phospho-AKT(S473), T47D (PI3Kα-H1047R) cells, 2 hours compound incubation
[4] = Homo sapiens, SK-BR-3; HTRF phospho-AKT(S473), SKBR3 (PI3Kα-Wild Type) cells, 2 hours compound incubation, PDGF-BB stimulated
[5] = Homo sapiens; T47D (PI3Kα-H1047R) cells, HTRF phospho-AKT(S473), 2 hours compound incubation
[6] = Homo sapiens, SK-BR-3; SKBR3 (PI3Kα-Wild Type) cells, HTRF phospho-AKT(S473), 2 hours compound incubation, PDGF-BB stimulated

With `COc1nc(C2CCN(c3nc4c([C@@H](C)Nc5ccc(Cl)nc5C(=O)NS(C)(=O)=O)cc(C)cc4c(=O)n3C)CC2)ncc1C` [Compound 562, (R)-6-chloro-3-((1-(2-(4-(4-methoxy-5-methylpyrimidin-2-yl)piperidin-1-yl)-3,6-dimethyl-4-oxo-3,4-dihydroquinazolin-8-yl)ethyl)amino)-N-(methylsulfonyl) picolinamide] the pIC50 [1, 3] was 6.30 to 6.60 and the pIC50 [2, 4] was ≤ 5.30.

With `Cc1cc([C@@H](C)Nc2ccc(Cl)nc2C(=O)NS(C)(=O)=O)c2nc(N3CCC(c4ccn(C)c(=O)c4)CC3)n(C)c(=O)c2c1` [Compound 319, (R)-6-chloro-3-((1-(3,6-dimethyl-2-(4-(1-methyl-2-oxo-1,2-dihydropyridin-4-yl)piperidin-1-yl)-4-oxo-3,4-dihydroquinazolin-8-yl)ethyl)amino)-N-(methylsulfonyl) picolinamide] the pIC50 [1, 5] was > 6.60 and the pIC50 [2, 6] was 5.30 to 6.00.

With `Cc1cc([C@@H](C)Nc2ccc(Cl)nc2C(=O)NS(C)(=O)=O)c2nc(N3CCC[C@H](c4ccc(C)nc4)C3)n(C)c(=O)c2c1` (relative stereo) [Compound 237, 6-chloro-3-(((R)-1-(3,6-dimethyl-2-((R*)-3-(6-methylpyridin-3-yl)piperidin-1-yl)-4-oxo-3,4-dihydroquinazolin-8-yl)ethyl)amino)-N-(methylsulfonyl) picolinamide] the pIC50 [1, 5] was > 6.60 and the pIC50 [2, 6] was 5.30 to 6.00.

`C[C@@H](Nc1ccc(Cl)nc1C(=O)NS(C)(=O)=O)c1cc(C(F)(F)F)cc2c(=O)n(C)c(N3C[C@@H]4[C@H](C3)[C@H]4c3ccn(C)n3)nc12` [Compound 452, 6-chloro-3-(((R)-1-(3-methyl-2-((1R,5S,6R)-6-(1-methyl-1H-pyrazol-3-yl)-3-azabicyclo[3.1.0]hexan-3-yl)-4-oxo-6-(trifluoromethyl)-3,4-dihydroquinazolin-8-yl)ethyl)amino)-N-(methylsulfonyl) picolinamide] was tested, and the pIC50 [1, 3] was 6.30 to 6.60 and the pIC50 [2, 4] was 5.30 to 6.00.

With `CC(=O)N1CCN(c2ccc(-c3nc4c([C@@H](C)Nc5ccc(Cl)nc5C(=O)NS(C)(=O)=O)cc(C)cc4c(=O)n3C)cc2F)CC1` [Compound 778, (R)-3-((1-(2-(4-(4-acetylpiperazin-1-yl)-3-fluorophenyl)-3,6-dimethyl-4-oxo-3,4-dihydroquinazolin-8-yl)ethyl)amino)-6-chloro-N-(methylsulfonyl) picolinamide] the pIC50 [1, 3] was > 6.60 and the pIC50 [2, 4] was 5.30 to 6.00.

For `CO[C@H]1C[C@@H](S(=O)(=O)NC(=O)c2nc(Cl)ccc2N[C@H](C)c2cc(C)cc3c(=O)n(C)c(N4Cc5ccc(F)cc5C4)nc23)C1` [Compound 378, 6-chloro-3-(((R)-1-(2-(5-fluoroisoindolin-2-yl)-3,6-dimethyl-4-oxo-3,4-dihydroquinazolin-8-yl)ethyl)amino)-N-(((1s,3S)-3-methoxycyclobutyl)sulfonyl)picolinamide], the pIC50 [1, 5] was 6.30 to 6.60 and the pIC50 [2, 6] was ≤ 5.30.

For `Cc1cc([C@@H](C)Nc2ccc(Cl)nc2C(=O)NS(C)(=O)=O)c2nc(N3CCC(c4cnc(C)nc4)CC3)n(C3CC3)c(=O)c2c1` [Compound 607, (R)-6-chloro-3-((1-(3-cyclopropyl-6-methyl-2-(4-(2-methylpyrimidin-5-yl)piperidin-1-yl)-4-oxo-3,4-dihydroquinazolin-8-yl)ethyl)amino)-N-(methylsulfonyl) picolinamide], the pIC50 [1, 3] was > 6.60 and the pIC50 [2, 4] was 5.30 to 6.00.

For `Cc1cc([C@@H](C)Nc2ccc(Cl)nc2C(=O)NS(C)(=O)=O)c2nc(N3C[C@H]4C[C@@H](c5cc[nH]n5)[C@@H]3C4)n(C)c(=O)c2c1` (single isomer, unassigned) [Compound 346, 3-(((R)-1-(2-((1S,4S,6R*)-6-(1H-pyrazol-3-yl)-2-azabicyclo[2.2.1]heptan-2-yl)-3,6-dimethyl-4-oxo-3,4-dihydroquinazolin-8-yl)ethyl)amino)-6-chloro-N-(methylsulfonyl) picolinamide], the pIC50 [1, 5] was 6.30 to 6.60 and the pIC50 [2, 6] was ≤ 5.30.

`Cc1cc([C@@H](C)Nc2ccc(Cl)nc2C(=O)NS(C)(=O)=O)c2nc(N3CCC(n4nc(C)cc4F)CC3)n(C)c(=O)c2c1` [Compound 490, (R)-6-chloro-3-((1-(2-(4-(5-fluoro-3-methyl-1H-pyrazol-1-yl)piperidin-1-yl)-3,6-dimethyl-4-oxo-3,4-dihydroquinazolin-8-yl)ethyl)amino)-N-(methylsulfonyl) picolinamide] was tested, and the pIC50 [1, 3] was 6.30 to 6.60 and the pIC50 [2, 4] was ≤ 5.30.

In the case of `Cc1ccc(N2C[C@H]3C[C@@H]2CN3c2nc3c([C@@H](C)Nc4ccc(Cl)nc4C(=O)NS(C)(=O)=O)cc(C)cc3c(=O)n2C)nc1` [Compound 609, 6-chloro-3-(((R)-1-(3,6-dimethyl-2-((1R,4R)-5-(5-methylpyridin-2-yl)-2,5-diazabicyclo [2.2.1]heptan-2-yl)-4-oxo-3,4-dihydroquinazolin-8-yl)ethyl)amino)-N-(methylsulfonyl) picolinamide], the pIC50 [1, 3] was 6.00 to 6.30 and the pIC50 [2, 4] was ≤ 5.30.

In the case of `Cc1cc([C@@H](C)Nc2ccc(Cl)nc2C(=O)NS(C)(=O)=O)c2nc(N3CCC(n4ncc5cc(C#N)ccc54)CC3)n(C)c(=O)c2c1` [Compound 255, (R)-6-chloro-3-((1-(2-(4-(5-cyano-1H-indazol-1-yl)piperidin-1-yl)-3,6-dimethyl-4-oxo-3,4-dihydroquinazolin-8-yl)ethyl)amino)-N-(methylsulfonyl) picolinamide], the pIC50 [1, 5] was > 6.60 and the pIC50 [2, 6] was 5.30 to 6.00.

`Cc1cc([C@@H](C)Nc2ccc(Cl)nc2C(=O)NS(C)(=O)=O)c2nc(N3C[C@@H]4[C@H](C3)[C@H]4c3csc(C)n3)n(C)c(=O)c2c1` [Compound 476, 6-chloro-3-(((R)-1-(3,6-dimethyl-2-((1R,5S,6R)-6-(2-methylthiazol-4-yl)-3-azabicyclo[3.1.0]hexan-3-yl)-4-oxo-3,4-dihydroquinazolin-8-yl)ethyl)amino)-N-(methylsulfonyl) picolinamide] was tested, and the pIC50 [1, 3] was 6.30 to 6.60 and the pIC50 [2, 4] was 5.30 to 6.00.

`Cc1cc([C@@H](C)Nc2ccc(Cl)nc2C(=O)NS(C)(=O)=O)c2nc(N3C[C@H]4CC4(c4cnc(C)cn4)C3)n(C)c(=O)c2c1` (relative stereo) [Compound 749, 6-chloro-3-(((R)-1-(3,6-dimethyl-2-((1R*,5S*)-1-(5-methylpyrazin-2-yl)-3-azabicyclo[3.1.0]hexan-3-yl)-4-oxo-3,4-dihydroquinazolin-8-yl)ethyl)amino)-N-(methylsulfonyl) picolinamide] was tested, and the pIC50 [1, 3] was 6.30 to 6.60 and the pIC50 [2, 4] was ≤ 5.30.

`Cc1cc([C@@H](C)Nc2ccc(Cl)nc2C(=O)NS(C)(=O)=O)c2nc(N3C[C@H]4C[C@@]4(c4cnc(C)nc4)C3)n(C)c(=O)c2c1` (relative stereo) [Compound 751, 6-chloro-3-(((R)-1-(3,6-dimethyl-2-((1R*,5S*)-1-(2-methylpyrimidin-5-yl)-3-azabicyclo[3.1.0]hexan-3-yl)-4-oxo-3,4-dihydroquinazolin-8-yl)ethyl)amino)-N-(methylsulfonyl) picolinamide] was tested, and the pIC50 [1, 3] was 6.30 to 6.60 and the pIC50 [2, 4] was ≤ 5.30.

With `Cc1cc([C@@H](C)Nc2ccc(Cl)nc2C(=O)NS(C)(=O)=O)c2nc(N3C[C@@H]4C(c5ncc(Cl)cn5)[C@@H]4C3)n(C)c(=O)c2c1` (stereo partly drawn) [Compound 535, 6-chloro-3-(((1R)-1-(2-((1R,5S)-6-(5-chloropyrimidin-2-yl)-3-azabicyclo[3.1.0]hexan-3-yl)-3,6-dimethyl-4-oxo-3,4-dihydroquinazolin-8-yl)ethyl)amino)-N-(methylsulfonyl) picolinamide] the pIC50 [1, 3] was 6.30 to 6.60 and the pIC50 [2, 4] was ≤ 5.30.

In the case of `Cc1cc([C@@H](C)Nc2ccc(Cl)nc2C(=O)NS(C)(=O)=O)c2nc(N3CCc4c(cnn4-c4ccccc4)C3)n(C)c(=O)c2c1` [Compound 195, (R)-6-chloro-3-((1-(3,6-dimethyl-4-oxo-2-(1-phenyl-1,4,6,7-tetrahydro-5H-pyrazolo[4,3-c]pyridin-5-yl)-3,4-dihydroquinazolin-8-yl)ethyl)amino)-N-(methylsulfonyl) picolinamide], the pIC50 [1, 5] was > 6.60 and the pIC50 [2, 6] was 5.30 to 6.00.

Compound `Cc1cc([C@@H](C)Nc2ccc(Cl)nc2C(=O)NS(C)(=O)=O)c2nc(N3C[C@@H]4C[C@H]3C[C@@H]4c3nn(C)cc3F)n(C)c(=O)c2c1` (relative stereo) [Compound 760, 6-chloro-3-(((R)-1-(2-((1R*,4S*,5R*)-5-(4-fluoro-1-methyl-1H-pyrazol-3-yl)-2-azabicyclo[2.2.1]heptan-2-yl)-3,6-dimethyl-4-oxo-3,4-dihydroquinazolin-8-yl)ethyl)amino)-N-(methylsulfonyl) picolinamide] has a pIC50 ([1]; HTRF phospho-AKT(S473), T47D (PI3Kα-H1047R) cells, 2 hours compound incubation) of 6.30 to 6.60.
